Source: the supplement of paper PMC10307832

Columns and labels:
Experiment in all cases: relative viability (nuclei count vs DMSO), 5 days (fraction); higher = more cells survive
[1] = compound: CCC1=CN=CN=C1N2CCN(CC2)CC3=NC4=C(N3)C=C(C=C4)C(F)(F)F + C[C@@H](Oc1cc(-c2cnn(C3CCNCC3)c2)cnc1N)c1c(Cl)ccc(F)c1Cl [Crizotinib] (partner 1 µM)
Summary of the method: (§1)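 Values are medians from duplicate plates. Each reflects relative viability, defined as the nuclei count of treated wells over that of vehicle wells. Lung cancer cell lines in 1536-well plates were pin-tool dosed one day after seeding with one drug alone or with a fixed anchor-drug dose plus five library-drug doses (not always all listed) in √10 steps, then fixed, stained and imaged at 4× after 5 days.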

[2] = compound: CCC1=CN=CN=C1N2CCN(CC2)CC3=NC4=C(N3)C=C(C=C4)C(F)(F)F + C[C@]1(O)C[C@@H](c2nc(-c3ccc4ccc(-c5ccccc5)nc4c3)c3c(N)nccn32)C1 [Linsitinib] (partner 1 µM)
Summary of the method: as §1

[3] = compound: CCC1=CN=CN=C1N2CCN(CC2)CC3=NC4=C(N3)C=C(C=C4)C(F)(F)F + Cc1nc(NC(=O)N2CCC[C@H]2C(N)=O)sc1-c1ccnc(C(C)(C)C(F)(F)F)c1 [Alpelisib] (partner 2 µM)
Summary of the method: as §1

[4] = compound: CCC1=CN=CN=C1N2CCN(CC2)CC3=NC4=C(N3)C=C(C=C4)C(F)(F)F + O=C(c1cc(Cc2n[nH]c(=O)c3ccccc23)ccc1F)N1CCN(C(=O)C2CC2)CC1 [Olaparib] (partner 8 µM)
Summary of the method: as §1

Cell Line: NCI-H596
- relative viability ([1]; first compound 0.04 µM): 0.91
- relative viability ([1]; first compound 0.1265 µM): 1.06
- relative viability ([1]; first compound 0.4 µM): 0.971
- relative viability ([1]; first compound 1.265 µM): 1
- relative viability ([1]; first compound 4 µM): 1.14
- relative viability ([2]; first compound 0.04 µM): 1.14
- relative viability ([2]; first compound 0.1265 µM): 1.08
- relative viability ([2]; first compound 0.4 µM): 1.09
- relative viability ([2]; first compound 1.265 µM): 1.06
- relative viability ([2]; first compound 4 µM): 1.02
- relative viability ([3]; first compound 0.04 µM): 0.573
- relative viability ([3]; first compound 0.1265 µM): 0.431
- relative viability ([3]; first compound 0.4 µM): 0.443
- relative viability ([3]; first compound 1.265 µM): 0.459
- relative viability ([3]; first compound 4 µM): 0.508
- relative viability ([4]; first compound 0.04 µM): 0.737
- relative viability ([4]; first compound 0.1265 µM): 0.64
- relative viability ([4]; first compound 0.4 µM): 0.575
- relative viability ([4]; first compound 1.265 µM): 0.649
- relative viability ([4]; first compound 4 µM): 0.747

Cell Line: NCI-H647
- relative viability ([1]; first compound 0.04 µM): 1.12
- relative viability ([1]; first compound 0.1265 µM): 1.13
- relative viability ([1]; first compound 1.265 µM): 1.04
- relative viability ([1]; first compound 4 µM): 1.19
- relative viability ([2]; first compound 0.04 µM): 1.33
- relative viability ([2]; first compound 0.1265 µM): 1.18
- relative viability ([2]; first compound 1.265 µM): 1.24
- relative viability ([2]; first compound 4 µM): 1.31
- relative viability ([3]; first compound 0.04 µM): 1.16
- relative viability ([3]; first compound 0.1265 µM): 1.05
- relative viability ([3]; first compound 1.265 µM): 1.02
- relative viability ([3]; first compound 4 µM): 1.05
- relative viability ([4]; first compound 0.04 µM): 0.458
- relative viability ([4]; first compound 0.1265 µM): 0.528
- relative viability ([4]; first compound 0.4 µM): 0.452
- relative viability ([4]; first compound 1.265 µM): 0.519
- relative viability ([4]; first compound 4 µM): 0.408

Cell Line: NCI-H650
- relative viability ([1]; first compound 0.04 µM): 0.741
- relative viability ([1]; first compound 0.1265 µM): 0.724
- relative viability ([1]; first compound 0.4 µM): 0.765
- relative viability ([1]; first compound 1.265 µM): 0.757
- relative viability ([1]; first compound 4 µM): 1.1
- relative viability ([2]; first compound 0.04 µM): 0.7
- relative viability ([2]; first compound 0.1265 µM): 1.03
- relative viability ([2]; first compound 0.4 µM): 1.01
- relative viability ([2]; first compound 1.265 µM): 0.864
- relative viability ([2]; first compound 4 µM): 0.804
- relative viability ([3]; first compound 0.04 µM): 1.02
- relative viability ([3]; first compound 0.1265 µM): 1.1
- relative viability ([3]; first compound 0.4 µM): 0.968
- relative viability ([3]; first compound 1.265 µM): 0.997
- relative viability ([3]; first compound 4 µM): 0.965
- relative viability ([4]; first compound 0.04 µM): 0.386
- relative viability ([4]; first compound 0.1265 µM): 0.373
- relative viability ([4]; first compound 0.4 µM): 0.393
- relative viability ([4]; first compound 1.265 µM): 0.331
- relative viability ([4]; first compound 4 µM): 0.347

Cell Line: NCI-H661
- relative viability ([1]; first compound 0.04 µM): 0.996
- relative viability ([1]; first compound 0.1265 µM): 0.943
- relative viability ([1]; first compound 0.4 µM): 0.964
- relative viability ([1]; first compound 1.265 µM): 0.951
- relative viability ([1]; first compound 4 µM): 1.1
- relative viability ([2]; first compound 0.04 µM): 0.711
- relative viability ([2]; first compound 0.1265 µM): 0.629
- relative viability ([2]; first compound 0.4 µM): 0.622
- relative viability ([2]; first compound 4 µM): 0.483
- relative viability ([3]; first compound 0.04 µM): 0.561
- relative viability ([3]; first compound 0.1265 µM): 0.512
- relative viability ([3]; first compound 0.4 µM): 0.506
- relative viability ([3]; first compound 4 µM): 0.57
- relative viability ([4]; first compound 0.04 µM): 0.802
- relative viability ([4]; first compound 0.1265 µM): 0.719
- relative viability ([4]; first compound 0.4 µM): 0.767
- relative viability ([4]; first compound 1.265 µM): 0.661
- relative viability ([4]; first compound 4 µM): 0.738

Cell Line: NCI-H727
- relative viability ([1]; first compound 0.04 µM): 0.986
- relative viability ([1]; first compound 0.1265 µM): 0.863
- relative viability ([1]; first compound 0.4 µM): 0.712
- relative viability ([1]; first compound 4 µM): 0.919
- relative viability ([2]; first compound 0.04 µM): 0.246
- relative viability ([2]; first compound 0.1265 µM): 0.183
- relative viability ([2]; first compound 0.4 µM): 0.495
- relative viability ([2]; first compound 4 µM): 0.299
- relative viability ([3]; first compound 0.04 µM): 0.684
- relative viability ([3]; first compound 0.1265 µM): 0.483
- relative viability ([3]; first compound 0.4 µM): 0.463
- relative viability ([3]; first compound 4 µM): 0.544
- relative viability ([4]; first compound 0.04 µM): 0.73
- relative viability ([4]; first compound 0.1265 µM): 0.593
- relative viability ([4]; first compound 0.4 µM): 0.719
- relative viability ([4]; first compound 1.265 µM): 0.61
- relative viability ([4]; first compound 4 µM): 0.641

Cell Line: NCI-H838
- relative viability ([1]; first compound 0.04 µM): 0.917
- relative viability ([1]; first compound 0.1265 µM): 0.845
- relative viability ([1]; first compound 0.4 µM): 0.908
- relative viability ([1]; first compound 1.265 µM): 0.947
- relative viability ([1]; first compound 4 µM): 1.27
- relative viability ([2]; first compound 0.04 µM): 0.991
- relative viability ([2]; first compound 0.1265 µM): 0.912
- relative viability ([2]; first compound 0.4 µM): 0.941
- relative viability ([2]; first compound 1.265 µM): 0.916
- relative viability ([2]; first compound 4 µM): 1.05
- relative viability ([3]; first compound 0.04 µM): 1.1
- relative viability ([3]; first compound 0.1265 µM): 0.963
- relative viability ([3]; first compound 0.4 µM): 0.971
- relative viability ([3]; first compound 1.265 µM): 0.994
- relative viability ([3]; first compound 4 µM): 0.986
- relative viability ([4]; first compound 0.04 µM): 0.816
- relative viability ([4]; first compound 0.1265 µM): 0.752
- relative viability ([4]; first compound 0.4 µM): 0.737
- relative viability ([4]; first compound 1.265 µM): 0.712
- relative viability ([4]; first compound 4 µM): 0.74

Cell Line: NCI-H1299
- relative viability ([1]; first compound 0.04 µM): 0.935
- relative viability ([1]; first compound 0.1265 µM): 0.953
- relative viability ([1]; first compound 0.4 µM): 0.953
- relative viability ([1]; first compound 1.265 µM): 0.96
- relative viability ([1]; first compound 4 µM): 0.981
- relative viability ([2]; first compound 0.04 µM): 1.05
- relative viability ([2]; first compound 0.1265 µM): 0.935
- relative viability ([2]; first compound 0.4 µM): 0.979
- relative viability ([2]; first compound 1.265 µM): 0.968
- relative viability ([2]; first compound 4 µM): 0.955
- relative viability ([3]; first compound 0.04 µM): 1.09
- relative viability ([3]; first compound 0.1265 µM): 1.07
- relative viability ([3]; first compound 0.4 µM): 1.04
- relative viability ([3]; first compound 1.265 µM): 1.03
- relative viability ([3]; first compound 4 µM): 1.04
- relative viability ([4]; first compound 0.04 µM): 0.942
- relative viability ([4]; first compound 0.1265 µM): 0.969
- relative viability ([4]; first compound 0.4 µM): 0.975
- relative viability ([4]; first compound 1.265 µM): 0.982
- relative viability ([4]; first compound 4 µM): 0.949

Cell Line: NCI-H1355
- relative viability ([1]; first compound 0.04 µM): 1.07
- relative viability ([1]; first compound 0.1265 µM): 1.01
- relative viability ([1]; first compound 0.4 µM): 1
- relative viability ([1]; first compound 1.265 µM): 1.14
- relative viability ([1]; first compound 4 µM): 1.15
- relative viability ([2]; first compound 0.04 µM): 0.852
- relative viability ([2]; first compound 0.1265 µM): 0.745
- relative viability ([2]; first compound 0.4 µM): 0.806
- relative viability ([2]; first compound 1.265 µM): 0.732
- relative viability ([2]; first compound 4 µM): 0.913
- relative viability ([3]; first compound 0.04 µM): 0.815
- relative viability ([3]; first compound 0.1265 µM): 0.74
- relative viability ([3]; first compound 0.4 µM): 0.807
- relative viability ([3]; first compound 1.265 µM): 0.732
- relative viability ([3]; first compound 4 µM): 0.797
- relative viability ([4]; first compound 0.04 µM): 0.775
- relative viability ([4]; first compound 0.1265 µM): 0.654
- relative viability ([4]; first compound 0.4 µM): 0.732
- relative viability ([4]; first compound 1.265 µM): 0.667
- relative viability ([4]; first compound 4 µM): 0.643
